This note sets out measurements from patent publication US12594276B2, “Inhibitors of human immunodeficiency virus replication” (ViiV Healthcare UK (No.5) Limited, priority 2024, dated 2026).

Series [1] concerns recombinant NL4-3 virus (nef section replaced with Renilla luciferase gene) in MT-2 cells. Description: HIV cell culture assay (antiviral activity, luciferase readout). The format is cell-based. The following applies: Renilla, NL43, MT-2 cells infected for 4-5 days with recombinant NL4-3 Renilla luciferase virus. In outline:
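Antiviral EC50 derived from luciferase signal using the exponential median effect equation. Infection of MT-2 cells ran 4-5 days alongside serial dilutions of compound, with virus generated by proviral clone transfection of 293T cells.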

The nature of series [2]: Compound cytotoxicity, XTT-based colorimetric assay. The series is classed as cell-based. The following applies: human; uninfected MT2 cells, day 4, XTT; read-out: CC50. The essentials:
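Cells seeded as for the antiviral assay but left uninfected (MT2). Compound exposure continued to day 4. XTT reagent added and colour read. CC50 calculated.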
(In general: Formazan colour is commonly taken as a measure of viable cells.)

Bounds are passed on as bounds.

As to `COCCCn1nc(NS(C)(=O)=O)c2c(Cl)ccc(-n3c([C@H](Cc4cc(F)cc(F)c4)NC(=O)Cn4nc(C5CC5)c5c4C[C@@H]4C[C@H]54)nc4nc(C5CCC(F)(F)CC5)cc(C)c4c3=O)c21` (atropisomer, axis not shown; (P)) [Example 87, N-[(1S)-1-[(3P)-3-[4-chloro-3-methanesulfonamido-1-(3-methoxypropyl)-1H-indazol-7-yl]-7-(4,4-difluorocyclohexyl)-5-methyl-4-oxo-3H,4H-pyrido[2,3-d]pyrimidin-2-yl]-2-(3,5-difluorophenyl)ethyl]-2-[(2S,4S)-9-cyclopropyl-7,8-diazatricyclo[4.3.0.0^2,^4]nona-1(6),8-dien-7-yl]acetamide], the EC50 in series [1] was 19 pM. For the same molecule, the CC50 at 4 days in series [2] is over 50000 pM.
Regarding `COCCCn1nc(NS(C)(=O)=O)c2c(Cl)ccc(-n3c([C@H](Cc4cc(F)cc(F)c4)NC(=O)Cn4nc(C(F)(F)F)c5c4C[C@@H]4C[C@H]54)nc4nc(C5CCC(F)(F)CC5)cc(C)c4c3=O)c21` (atropisomer, axis not shown; (P)) [Example 88, N-[(1S)-1-[(3P)-3-[4-chloro-3-methanesulfonamido-1-(3-methoxypropyl)-1H-indazol-7-yl]-7-(4,4-difluorocyclohexyl)-5-methyl-4-oxo-3H,4H-pyrido[2,3-d]pyrimidin-2-yl]-2-(3,5-difluorophenyl)ethyl]-2-[(2S,4S)-9-(trifluoromethyl)-7,8-diazatricyclo[4.3.0.0^2,^4]nona-1(6),8-dien-7-yl]acetamide], in series [1], the EC50 came to 21 pM. The CC50 at 4 days in series [2] is over 50000 pM.
The corresponding values for `COCCCn1nc(NS(C)(=O)=O)c2c(Cl)ccc(-n3c([C@H](Cc4cc(F)cc(F)c4)NC(=O)Cn4nc(C(F)(F)F)c5c4C(F)(F)[C@@H]4C[C@H]54)nc4nc(C5CCC(F)(F)CC5)cc(C)c4c3=O)c21` (atropisomer, axis not shown; (P)) [Example 89, N-[(1S)-1-[(3P)-3-[4-chloro-3-methanesulfonamido-1-(3-methoxypropyl)-1H-indazol-7-yl]-7-(4,4-difluorocyclohexyl)-5-methyl-4-oxo-3H,4H-pyrido[2,3-d]pyrimidin-2-yl]-2-(3,5-difluorophenyl)ethyl]-2-[(2S,4R)-5,5-difluoro-9-(trifluoromethyl)-7,8-diazatricyclo[4.3.0.0^2,^4]nona-1(6),8-dien-7-yl]acetamide] are 14 pM and over 50000 pM.
With `COCCCn1nc(NS(C)(=O)=O)c2c(Cl)ccc(-n3c([C@H](Cc4cc(F)cc(F)c4)NC(=O)Cn4nc(C(F)F)c5c4C(F)(F)[C@@H]4C[C@H]54)nc4nc(C5CCC(F)(F)CC5)cc(C)c4c3=O)c21` (atropisomer, axis not shown; (P)) [Example 90, N-[(1S)-1-[(3P)-3-[4-chloro-3-methanesulfonamido-1-(3-methoxypropyl)-1H-indazol-7-yl]-7-(4,4-difluorocyclohexyl)-5-methyl-4-oxo-3H,4H-pyrido[2,3-d]pyrimidin-2-yl]-2-(3,5-difluorophenyl)ethyl]-2-[(2S,4R)-9-(difluoromethyl)-5,5-difluoro-7,8-diazatricyclo[4.3.0.0^2,^4]nona-1(6),8-dien-7-yl]acetamide], in series [1], the EC50 came to 18 pM. Besides, the cytotoxic concentration (CC50) at 4 days in series [2] was over 50000 pM.
As to `Cc1cc(C2CCC(F)(F)CC2)nc2nc([C@H](Cc3cc(F)cc(F)c3)NC(=O)Cn3nc(C(F)F)c4c3C(F)(F)[C@@H]3C[C@H]43)n(-c3ccc(Cl)c4c(NS(C)(=O)=O)nn(CCOC(F)F)c34)c(=O)c12` (atropisomer, axis not shown; (P)) [Example 94, N-[(1S)-1-[(3P)-3-{4-chloro-1-[2-(difluoromethoxy)ethyl]-3-methanesulfonamido-1H-indazol-7-yl}-7-(4,4-difluorocyclohexyl)-5-methyl-4-oxo-3H,4H-pyrido[2,3-d]pyrimidin-2-yl]-2-(3,5-difluorophenyl)ethyl]-2-[(2S,4R)-9-(difluoromethyl)-5,5-difluoro-7,8-diazatricyclo[4.3.0.0^2,^4]nona-1(6),8-dien-7-yl]acetamide], the half-maximal effective concentration (EC50) in series [1] was determined as 23 pM. Besides, the CC50 at 4 days in series [2] is over 50000 pM.
Taken in the same sequence, the figures for `Cc1cc(C2CCC(F)(F)CC2)nc2nc([C@H](Cc3cc(F)cc(F)c3)NC(=O)Cn3nc(C(F)F)c4c3C(F)(F)[C@@H]3C[C@H]43)n(-c3ccc(Cl)c4c(NS(C)(=O)=O)nn(CCN5CCOCC5)c34)c(=O)c12` (atropisomer, axis not shown; (P)) [Example 105, N-[(1S)-1-[(3P)-3-{4-chloro-3-methanesulfonamido-1-[2-(morpholin-4-yl)ethyl]-1H-indazol-7-yl}-7-(4,4-difluorocyclohexyl)-5-methyl-4-oxo-3H,4H-pyrido[2,3-d]pyrimidin-2-yl]-2-(3,5-difluorophenyl)ethyl]-2-[(2S,4R)-9-(difluoromethyl)-5,5-difluoro-7,8-diazatricyclo[4.3.0.0^2,^4]nona-1(6),8-dien-7-yl]acetamide] were 11 pM and over 50000 pM.
Turning to `Cc1cc(C2CCC(F)(F)CC2)nc2nc([C@H](Cc3cc(F)cc(F)c3)NC(=O)Cn3nc(C4CC4)c4c3C(F)(F)[C@@H]3C[C@H]43)n(-c3ccc(Cl)c4c(NS(C)(=O)=O)nn(CCN5CCOCC5)c34)c(=O)c12` (atropisomer, axis not shown; (P)) [Example 112, N-[(1S)-1-[(3P)-3-{4-chloro-3-methanesulfonamido-1-[2-(morpholin-4-yl)ethyl]-1H-indazol-7-yl}-7-(4,4-difluorocyclohexyl)-5-methyl-4-oxo-3H,4H-pyrido[2,3-d]pyrimidin-2-yl]-2-(3,5-difluorophenyl)ethyl]-2-[(2S,4R)-9-cyclopropyl-5,5-difluoro-7,8-diazatricyclo[4.3.0.0^2,^4]nona-1(6),8-dien-7-yl]acetamide], the EC50 in series [1] is 13 pM. Besides, the half-maximal cytotoxic concentration (CC50) at 4 days in series [2] is over 50000 pM.
As to `Cc1cc(C2CCC(F)(F)CC2)nc2nc([C@H](Cc3cc(F)cc(F)c3)NC(=O)Cn3nc(C4CC4)c4c3C[C@@H]3C[C@H]43)n(-c3ccc(Cl)c4c(NS(C)(=O)=O)nn(CCN5CCOCC5)c34)c(=O)c12` (atropisomer, axis not shown; (P)) [Example 114, N-[(1S)-1-[(3P)-3-{4-chloro-3-methanesulfonamido-1-[2-(morpholin-4-yl)ethyl]-1H-indazol-7-yl}-7-(4,4-difluorocyclohexyl)-5-methyl-4-oxo-3H,4H-pyrido[2,3-d]pyrimidin-2-yl]-2-(3,5-difluorophenyl)ethyl]-2-[(2S,4S)-9-cyclopropyl-7,8-diazatricyclo[4.3.0.0^2,^4]nona-1(6),8-dien-7-yl]acetamide], the concentration for a half-maximal effect (EC50) in series [1] turned out to be 13 pM. Also, the CC50 at 4 days in series [2] is over 50000 pM.
Consider `Cc1cc(C2CCC(F)(F)CC2)nc2nc([C@H](Cc3cc(F)cc(F)c3)NC(=O)Cn3nc(C(F)(F)F)c4c3C[C@@H]3C[C@H]43)n(-c3ccc(Cl)c4c(NS(C)(=O)=O)nn(CCN5CCOCC5)c34)c(=O)c12` (atropisomer, axis not shown; (P)) [Example 115, N-[(1S)-1-[(3P)-3-{4-chloro-3-methanesulfonamido-1-[2-(morpholin-4-yl)ethyl]-1H-indazol-7-yl}-7-(4,4-difluorocyclohexyl)-5-methyl-4-oxo-3H,4H-pyrido[2,3-d]pyrimidin-2-yl]-2-(3,5-difluorophenyl)ethyl]-2-[(2S,4S)-9-(trifluoromethyl)-7,8-diazatricyclo[4.3.0.0^2,^4]nona-1(6),8-dien-7-yl]acetamide], for which the EC50 in series [1] was determined as 16 pM. In series [2], the CC50 at 4 days was over 50000 pM.

One may read the EC50 as the concentration giving half of the maximal effect. One may read the CC50 as the concentration at which the toxic effect on the cells reaches its halfway point.
